Measured values reported in ChEMBL document CHEMBL1128181, “Structure-based design of nonpeptidic HIV protease inhibitors from a cyclooctylpyranone lead structure” (J Med Chem, 1995).

Molecular target: Human immunodeficiency virus type 1 protease (Human immunodeficiency virus 1, UniProt Q72874)
Test: Inhibitory activity against HIV-I protease.

Work on CCC(c1ccccc1)c1c(O)c2c(oc1=O)CCCCCCC2 (stereo unspecified) yielded a Ki of 58.3 nM.

OC1=C(C(c2ccccc2)C2CC2)COC2=C1CCCCCCC2 (stereo unspecified) showed a Ki of 11.7 nM.

For CCCC(=O)Nc1cccc(C(c2c(O)c3c(oc2=O)CCCCCC3)C2CC2)c1 (stereo unspecified), the Ki was 24 nM.

In the case of CCCCC1CCCCCCc2c1oc(O)c(C(c1ccccc1)C1CC1)c2=O (stereo unspecified), the Ki is reported as 31 nM.

For O=c1c2c(oc(O)c1C(c1ccccc1)C1CC1)C(CC1CC1)CCCCC2 (stereo unspecified), the Ki was 24 nM.

In the case of CC(C)CC1CCCCCCc2c1oc(O)c(C(c1ccccc1)C1CC1)c2=O (stereo unspecified), the Ki is reported as 30 nM.

In the case of O=C(Nc1cccc(C(c2c(O)oc3c(c2=O)CCCCCC3)C2CC2)c1)c1ccc(F)cc1 (stereo unspecified), the Ki is reported as 55 nM.

CC(C)(C)OC(=O)NCC(=O)Nc1cccc(C(c2c(O)c3c(oc2=O)CCCCCC3)C2CC2)c1 (stereo unspecified) was tested, and the Ki was 5.5 nM.

C[C@H](NC(=O)OC(C)(C)C)C(=O)Nc1cccc(C(c2c(O)c3c(oc2=O)CCCCCC3)C2CC2)c1 (stereo partly specified) gave a Ki of 6.9 nM.

For O=C(/C=C/c1ccccc1)Nc1cccc(C(c2c(O)oc3c(c2=O)CCCCCC3)C2CC2)c1 (stereo unspecified), the Ki was 470 nM.

CCNC(=O)Nc1cccc(C(c2c(O)c3c(oc2=O)CCCCCC3)C2CC2)c1 (stereo unspecified) was tested, and the Ki was 72 nM.

O=C(Cc1ccccc1)Nc1cccc(C(c2c(O)oc3c(c2=O)CCCCCC3)C2CC2)c1 (stereo unspecified) showed a Ki of 33 nM.

CCC(c1ccccc1)c1c(O)c2c(oc1=O)C(C)CCCCCC2 (stereo unspecified) gave a Ki of 330 nM.

O=C(Nc1cccc(C(c2c(O)oc3c(c2=O)CCCCCC3)C2CC2)c1)c1ccccc1 (stereo unspecified) showed a Ki of 42 nM.

Compound CC(C)(C)OC(=O)NCCC(=O)Nc1cccc(C(c2c(O)c3c(oc2=O)CCCCCC3)C2CC2)c1 (stereo unspecified) has a Ki of 4 nM.

Work on O=c1c2c(oc(O)c1C(c1ccccc1)C1CC1)CCCCCC2 (stereo unspecified) yielded a Ki of 96 nM.

O=c1c2c(oc(O)c1C(c1ccccc1)C1CC1)C(CC1CC1)CCCCCC2 (stereo unspecified) was tested, and the Ki was 24 nM.

Work on CC(C)(C)OC(=O)N1CCC[C@H]1C(=O)Nc1cccc(C(c2c(O)c3c(oc2=O)CCCCCC3)C2CC2)c1 (stereo partly specified) yielded a Ki of 43 nM.

For CCC1CCCCCCc2c1oc(O)c(C(c1ccccc1)C1CC1)c2=O (stereo unspecified), the Ki was 33 nM.

O=c1c2c(oc(O)c1C(c1ccccc1)C1CC1)C(CC1CCCCO1)CCCCCC2 (stereo unspecified) showed a Ki of 120 nM.

CC(C)(C)OC(=O)N[C@@H](Cc1cnc[nH]1)C(=O)Nc1cccc(C(c2c(O)c3c(oc2=O)CCCCCC3)C2CC2)c1 (stereo partly specified) showed a Ki of 3 nM.

COCCC1CCCCCc2c1oc(O)c(C(c1ccccc1)C1CC1)c2=O (stereo unspecified) showed a Ki of 28 nM.

Compound CC(C)(C)OC(=O)N[C@H](Cc1cnc[nH]1)C(=O)Nc1cccc(C(c2c(O)c3c(oc2=O)CCCCCC3)C2CC2)c1 (stereo partly specified) has a Ki of 11 nM.

For CCC(c1ccccc1)c1c(O)c2c(oc1=O)C(Cc1ccccc1)CCCCCC2 (stereo unspecified), the Ki was 266 nM.

For C[C@@H](NC(=O)OC(C)(C)C)C(=O)Nc1cccc(C(c2c(O)c3c(oc2=O)CCCCCC3)C2CC2)c1 (stereo partly specified), the Ki was 32 nM.

With O=c1c2c(oc(O)c1C(C1CC1)C1CC1)CCCCCCC2 the Ki was 57 nM.

CC(C)(C)OC(=O)NCCCC(=O)Nc1cccc(C(c2c(O)c3c(oc2=O)CCCCCC3)C2CC2)c1 (stereo unspecified) was tested, and the Ki was 14 nM.

With CC(C)CCC1CCCCCCc2c1oc(O)c(C(c1ccccc1)C1CC1)c2=O (stereo unspecified) the Ki was 50 nM.

Work on O=C(Nc1ccccc1)Nc1cccc(C(c2c(O)oc3c(c2=O)CCCCCC3)C2CC2)c1 (stereo unspecified) yielded a Ki of 450 nM.

CCCC1CCCCCCc2c1oc(O)c(C(c1ccccc1)C1CC1)c2=O (stereo in doubt; 11) gave a Ki of 26 nM.

CCCC1CCCCCCc2c1oc(O)c(C(c1ccccc1)C1CC1)c2=O (stereo in doubt; 11e) gave a Ki of 9 nM.
